Structures are written as SMILES.

The source of these data is patent US20220087987A1, “A METHOD FOR TREATING SWI/SNF COMPLEX-DEFICIENT CANCERS COMPRISING GLUTATHIONE (GSH) METABOLIC PATHWAY INHIBITOR” (National Cancer Center, priority 2018, published 2022).

For one data set, the system named is ARID1A-KO HCT116 cells. Put plainly: Drug library screen, cell viability (CellTiter-Glo). The data set is classed as cell-based, human. Details: key to Cell viability, KO: % viability relative to DMSO solvent-treated cells. To be noted: HCT116 ARID1A-KO; 10 μM for 5 days; relative to cells treated with solvent (DMSO). In short, it runs like this: (§1)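 ARID1A-WT and ARID1A-KO HCT116 cells screened against the library; viability read after 5 days by CellTiter-Glo luminescence, expressed relative to DMSO-treated cells. Hits: KO viability below 40% with WT viability above 80%.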
(In general: Cellular ATP, detected with luciferase, serves as a proxy for viable cell number.)

Data set [1] deals with ARID1A-WT and ARID1A-KO HCT116 cells. The data set can be described thus: Cell viability and colony formation assays. The data set is classed as cell-based, human. To be noted: cell viability 5 days, colony formation 10 days. How it is done: Cell viability was examined by measuring the cellular ATP level using the CellTiter-Glo Luminescent Cell Viability Assay (Promega). To measure cell viability after siRNA-mediated knockdown, cell lines were transfected with siRNAs (25 nM) using Lipofectamine RNAiMAX. After 48 hrs, cells were trypsinized and repeatedly transfected with siRNAs (25 nM) using Lipofectamine RNAiMAX. Cells were trypsinized after a further 48 hrs, counted, and reseeded at the specified density in 96-well plates. To measure cell viability after drug treatment, cells were trypsinized, counted, reseeded at the specified density in 96-well plates, and exposed to the indicated concentrations of drugs. Cell viability was measured using the CellTiter-Glo Luminescent Cell Viability Assay. Luminescence was measured using an Envision Multi-label plate reader (PerkinElmer).
The effect of drug treatment on cancer cell survival was evaluated in a colony formation assay. Cells were trypsinized, counted, reseeded at the specified density in 12-well plates, exposed to the indicated concentrations of drugs for 10-14 days, and fixed for 10 min in 50% (v/v) methanol containing 0.01% (w/v) crystal violet. Images were taken on LAS-3000 Imaging System (Fujifilm) and colonies were counted using Multi Gauge software.

In another data set the test system is p53, p21. The data set can be described thus: Immunoblot for p53 and p21. The data set is classed as cell-based, human. To be noted: ARID1A-WT and ARID1A-KO HCT116; 50 μM PRIMA-1, 50 μM APR-246, 10 μM Nutlin3a, 16 hrs. How it is done: The soluble fractions of whole-cell lysates were mixed with SDS sample buffer. […] The soluble fractions were mixed with SDS sample buffer. Tumor samples derived from xenografts were weighed and washed with PBS. […] The homogenized tumor samples were diluted in an additional 450 μl of NETN420 buffer, incubated for 30 min on ice, and centrifuged at 4° C. for 10 min at 15,000 rpm. The soluble fractions of whole-cell lysates were mixed with SDS sample buffer. Proteins were separated by SDS-PAGE, transferred to PVDF membranes, and immunoblotted with the indicated antibodies. β-actin was used as a loading control. Membranes were blocked overnight at 4° C. or for 1 hr at 25° C. with PVDF Blocking Reagent for Can Get Signal (TOYOBO) and then probed with Can Get Signal Solution 1 (TOYOBO) containing primary antibodies. After washing with TBS containing 0.1% Tween 20, the membranes were incubated with TBS containing 0.1% Tween 20, 1% BSA, and horseradish peroxidase-conjugated anti-mouse or anti-rabbit secondary antibodies, and visualized using Western Lightning ECL Pro (Perkin Elmer). Chemiluminescence signals were measured using LAS-3000 Imaging System (Fujifilm). Signal intensities were measured using Multi Gauge software.
In general terms: In western blotting, separated proteins are transferred to a membrane and probed.

The test system of the next data set is ARID1A-WT HCT116 cells. The data set can be described thus: Drug library screen, cell viability (CellTiter-Glo). The data set is classed as cell-based, human. Details: key to Cell viability, WT: % viability relative to DMSO solvent-treated cells. To be noted: HCT116 ARID1A-WT; 10 μM for 5 days; relative to cells treated with solvent (DMSO). In short, it runs like this:
as §1

Data set [2] concerns ARID1A-deficient OVISE OCCC xenografts. Put plainly: Mouse xenograft model, OVISE. The data set is classed as in vivo, mice. To be noted: PRIMA-1 25 mg/kg. How it is done:
All mouse experiments were approved by the National Cancer Center (NCC) animal Ethical Committee. Cells were counted and re-suspended in a 1:1 mixture of 100 μl culture medium and 100 μl Matrigel (BD Biosciences) on ice. Thereafter, cells (RMG-I: 2×10^6 cells/mouse; TOV21G: 2×10^5 cells/mouse for ARP-246 treatment and 1×10^6 cells/mouse for BSO treatment; OVISE: 2×10^6 cells/mouse; TOV21G-shNT: 2×10^5 cells/mouse; and TOV21G-shGCLC: 2×10^5 cells/mouse) were injected subcutaneously into the flank of 6-week-old female BALB/c-nu/nu mice (CLEA and Charles River). In the subcutaneous model, once the tumors were palpable (about 3-14 days after implantation), mice were randomly divided into two groups. In the drug treatment group, mice were injected intraperitoneally with either PBS or compounds [APR-246 (50 mg/kg), PRIMA-1 (25 mg/kg), or BSO (750 mg/kg)] once daily for 12-14 days. In the doxycycline (Dox) treatment study, TOV21G-shNT cells and TOV21G-shGCLC cells were injected into the flanks of 6-week-old female BALB/c-nu/nu mice. […] Tumor growth was measured every several days using calipers. The volume of implanted tumors was calculated using the formula V=L×W2/2, where V is volume (mm^3), L is the largest diameter (mm), and W is the smallest diameter (mm). […]

Take `O=C1C2CCN(CC2)C1(CO)CO` [PRIMA-1]: the “Cell viability, KO” value in the data set with ARID1A-KO HCT116 cells is on record as 12.95. For the same compound, in data set [1], the “growth / survival of ARID1A-KO versus ARID1A-WT cells” value is “reproducibly suppressed the growth of ARID1A-KO cells but not ARID1A-WT cells”. Also, the “expression of p53 and p21” value with p53, p21 is on record as “did not markedly affect expression of p53 or p21”. Also, the “Cell viability, WT” value with ARID1A-WT HCT116 cells is 84.25. Further, in data set [2], the “body weight of mice” value is reported as “without causing significant weight loss” and the “growth of xenografts (tumor volume)” value is “significantly suppressed the growth”.
